From US10688099B2, “Methods for modulating the amount of RNA transcripts” (PTC Therapeutics, Inc., priority 2013, dated 2020)

Test system: RNA isoforms in PNN 1-46 SMA type I patient-derived fibroblasts
Experiment: RNA Abundance Modulation (RNA isoform abundance, iFPM, HiSeq RNA sequencing)
Assay type: cell-based, human
Conditions: for RNA abundance modulation (effect on isoform fold increase): 24 hrs, PNN 1-46 fibroblasts
Experimental: Cells from a cell line of interest are cultured in conditions sufficient to yield the number of cells capable of generating enough RNA for subsequent sequencing steps. Cells from the tested cell line are contacted with a compound described herein.
To culture said cells, they are seeded, at appropriate concentrations in a volume of media in a cell culture container and incubated for 4, 5, 6, 7, 8, 9, 10, or more hours. A concentrated solution of compound in a vehicle (e.g., DMSO) is then added in sufficient volume to result in the intended final concentration of the compound, for example 100 nM, 500 nM, 1 μM, 5 μM, 10 μM, 15 μM, 20 μM, or more. The cells may also be treated with vehicle alone, as a control. A number of replicates of each concentration or control may be made (e.g., 2 replicates). The cells are then incubated at a constant temperature appropriate for cell culture of the particular cell line (e.g., 37° C.) for 6, 12, 18, 24, 48, or more hours. After incubation, the growth medium is removed and the cells are washed with the appropriate buffer (e.g., PBS). Cells are then removed from adherence to the cell culture container by treatment with a solution containing trypsin, and the trypsin subsequently quenched with the appropriate volume of buffer (e.g., DMEM-FBS). The cells are then pelleted with gentle centrifugation (e.g., ≤90×g centrifugal force) and resuspended in a buffer to lyse the cells for extraction of RNA. The cell lysates may then be frozen (e.g., at −80° C.) or, alternately, may immediately be used in a procedure to purify the RNA (e.g. by use of the RNEASY PLUS® minikit). The RNA from cell lysates is eluted in the appropriate volume of buffer (e.g., RNEASE-FREE H2O®). The resulting purified RNA may then be sequenced (e.g., using RNASeq) or analyzed using a human exon array (e.g., by GENECHIP® human exon array) to determine changes in the RNA levels in those cells treated with compound compared to those cells treated only with DMSO. The purified RNA may also be quantified by other methods known in the art.
Using the RNA data obtained from sequencing, exon array, or other methods, a statistical analysis can reveal changes in the RNA levels of compound-treated compared with control. For example, t-test p-values may be calculated for the data obtained through sequencing and exon array methods in order to compare compound-treated cells to those treated with the DMSO control. […] Analysis of the sequencing and exon array data may then also yield predictions about the cause of the aberrant amount of an RNA transcript in the cells (e.g., perturbation of RNA splicing, RNA transcription, or RNA stability). These predictions may be further confirmed by methods known in the art. For example, RT-PCR and RT-qPCR may be used to confirm the change in amount of RNA transcripts for one or more particular transcripts of interest.
Following the methods described above in Example 1, PNN 1-46 SMA type I patient-derived fibroblasts were treated with 300 nM or 3 μM Compounds 774 and 808 in 0.5% DMSO.
700,000 cells were seeded in 10 mL of medium (DMEM plus 10% FBS) in a T-75 flask. Cells were allowed to attach for at least 4 hrs, after which 50 μL of a 200× compound solution (100% DMSO) was added to each well, and the plate was incubated at 37° C. for 24 hrs.
At the end of the incubation period, the supernatant was removed and the cells where washed with PBS. TrypLE (Invitrogen) express solution was added (e.g. 1.5 mL per one T75 flask). The flasks were incubated for 3 to 5 min at 37° C. The trypsin was then quenched, e.g., by adding 10 mL DMEM-FBS.
Next, the cells were pelleted using gentle centrifugation without exceeding 90×g centrifugal force. The supernatant was removed and the cell pellet was re-suspended in 600 μL RLT buffer (the RLT buffer was supplemented with beta-mercaptoethanol according to the RNeasy protocol manual) by pipetting up and down until the pellet was completely dissolved […]

## CCc1nc(C)cn2nc(-c3cc(=O)n4cc(C5CCN(C)CC5)cc(C)c4n3)cc12 [Compound 774]
0.3 μM
  RNA abundance modulation (effect on isoform fold increase): modulates RNA abundance
3 μM
  RNA abundance modulation (effect on isoform fold increase): modulates RNA abundance
TACC1 NM_006283, 3 μM
  FC (x + 1): 1.1645
  L2FC (x + 1): 0.220
  L2abs (Cpd-DMSO): 8.47
  abs (Cpd-DMSO): 354 iFPM
  amp FC (x + 1): 1.16
  ave Cpd: 2506 iFPM
TAF2 NM_003184, 3 μM
  FC (x + 1): 0.4533
  L2FC (x + 1): −1.141
  L2abs (Cpd-DMSO): 9.75
  abs (Cpd-DMSO): 862 iFPM
  amp FC (x + 1): 2.21
  ave Cpd: 714 iFPM
TANC2 AJ278120, 3 μM
  FC (x + 1): 1.0181
  L2FC (x + 1): 0.026
  L2abs (Cpd-DMSO): 1.28
  abs (Cpd-DMSO): 2 iFPM
  amp FC (x + 1): 1.02
  ave Cpd: 136 iFPM
TANC2 AK001077, 3 μM
  FC (x + 1): 4.5130
  L2FC (x + 1): 2.174
  L2abs (Cpd-DMSO): 1.81
  abs (Cpd-DMSO): 4 iFPM
  amp FC (x + 1): 4.51
  ave Cpd: 4 iFPM
TANC2 AK021886, 3 μM
  FC (x + 1): 0.4015
  L2FC (x + 1): −1.317
  L2abs (Cpd-DMSO): 2.40
  abs (Cpd-DMSO): 5 iFPM
  amp FC (x + 1): 2.49
  ave Cpd: 3 iFPM
TANC2 BC144357, 3 μM
  FC (x + 1): 0.3363
  L2FC (x + 1): −1.572
  L2abs (Cpd-DMSO): 8.29
  abs (Cpd-DMSO): 313 iFPM
  amp FC (x + 1): 2.97
  ave Cpd: 158 iFPM
TANC2 NM_025185, 3 μM
  FC (x + 1): 1.0124
  L2FC (x + 1): 0.018
  L2abs (Cpd-DMSO): 4.47
  abs (Cpd-DMSO): 22 iFPM
  amp FC (x + 1): 1.01
  ave Cpd: 1812 iFPM
TARBP1 NM_005646, 3 μM
  FC (x + 1): 0.1192
  L2FC (x + 1): −3.068
  L2abs (Cpd-DMSO): 8.52
  abs (Cpd-DMSO): 367 iFPM
  amp FC (x + 1): 8.39
  ave Cpd: 49 iFPM
TBC1D15 AK307922, 3 μM
  FC (x + 1): 1.0252
  L2FC (x + 1): 0.036
  L2abs (Cpd-DMSO): 2.70
  abs (Cpd-DMSO): 6 iFPM
  amp FC (x + 1): 1.03
  ave Cpd: 263 iFPM
TBC1D15 NM_022771, 3 μM
  FC (x + 1): 1.1954
  L2FC (x + 1): 0.257
  L2abs (Cpd-DMSO): 3.99
  abs (Cpd-DMSO): 16 iFPM
  amp FC (x + 1): 1.20
  ave Cpd: 96 iFPM
TBC1D15 NM_001146213, 3 μM
  FC (x + 1): 1.4119
  L2FC (x + 1): 0.498
  L2abs (Cpd-DMSO): 8.07
  abs (Cpd-DMSO): 270 iFPM
  amp FC (x + 1): 1.41
  ave Cpd: 923 iFPM
TBC1D15 NM_001146214, 3 μM
  FC (x + 1): 1.0153
  L2FC (x + 1): 0.022
  L2abs (Cpd-DMSO): −0.65
  abs (Cpd-DMSO): 1 iFPM
  amp FC (x + 1): 1.02
  ave Cpd: 41 iFPM
TBC1D15 NR_027449, 3 μM
  FC (x + 1): 0.1625
  L2FC (x + 1): −2.621
  L2abs (Cpd-DMSO): 6.94
  abs (Cpd-DMSO): 123 iFPM
  amp FC (x + 1): 6.15
  ave Cpd: 23 iFPM
TEP1 AB209669, 3 μM
  FC (x + 1): 1.0000
  L2FC (x + 1): 0.000
  L2abs (Cpd-DMSO): 0
  abs (Cpd-DMSO): 0 iFPM
  amp FC (x + 1): 1.00
  ave Cpd: 0 iFPM
TEP1 AK303307, 3 μM
  FC (x + 1): 1.3304
  L2FC (x + 1): 0.412
  L2abs (Cpd-DMSO): 1.91
  abs (Cpd-DMSO): 4 iFPM
  amp FC (x + 1): 1.33
  ave Cpd: 14 iFPM
TEP1 BC143812, 3 μM
  FC (x + 1): 0.8125
  L2FC (x + 1): −0.300
  L2abs (Cpd-DMSO): 4.99
  abs (Cpd-DMSO): 32 iFPM
  amp FC (x + 1): 1.23
  ave Cpd: 137 iFPM
TEP1 BC143815, 3 μM
  FC (x + 1): 0.0138
  L2FC (x + 1): −6.184
  L2abs (Cpd-DMSO): 6.16
  abs (Cpd-DMSO): 72 iFPM
  amp FC (x + 1): 72.71
  ave Cpd: 0 iFPM
TEP1 BX640983, 3 μM
  FC (x + 1): 1.1188
  L2FC (x + 1): 0.162
  L2abs (Cpd-DMSO): 0.61
  abs (Cpd-DMSO): 2 iFPM
  amp FC (x + 1): 1.12
  ave Cpd: 13 iFPM
TEP1 NM_007110, 3 μM
  FC (x + 1): 1.0236
  L2FC (x + 1): 0.034
  L2abs (Cpd-DMSO): 3.20
  abs (Cpd-DMSO): 9 iFPM
  amp FC (x + 1): 1.02
  ave Cpd: 397 iFPM
TFCP2 AK308087, 3 μM
  FC (x + 1): 0.8370
  L2FC (x + 1): −0.257
  L2abs (Cpd-DMSO): 4.27
  abs (Cpd-DMSO): 19 iFPM
  amp FC (x + 1): 1.19
  ave Cpd: 98 iFPM
TFCP2 NM_005653, 3 μM
  FC (x + 1): 0.8324
  L2FC (x + 1): −0.265
  L2abs (Cpd-DMSO): 7.35
  abs (Cpd-DMSO): 163 iFPM
  amp FC (x + 1): 1.20
  ave Cpd: 808 iFPM
TFCP2 NM_001173452, 3 μM
  FC (x + 1): 4.0384
  L2FC (x + 1): 2.014
  L2abs (Cpd-DMSO): 7.49
  abs (Cpd-DMSO): 180 iFPM
  amp FC (x + 1): 4.04
  ave Cpd: 239 iFPM
TFCP2 NM_001173453, 3 μM
  FC (x + 1): 0.0531
  L2FC (x + 1): −4.236
  L2abs (Cpd-DMSO): 4.16
  abs (Cpd-DMSO): 18 iFPM
  amp FC (x + 1): 18.84
  ave Cpd: 0 iFPM
TGFBRAP1 AK021697, 3 μM
  FC (x + 1): 0.2793
  L2FC (x + 1): −1.840
  L2abs (Cpd-DMSO): 4.66
  abs (Cpd-DMSO): 25 iFPM
  amp FC (x + 1): 3.58
  ave Cpd: 9 iFPM
TGFBRAP1 NM_004257, 3 μM
  FC (x + 1): 0.0064
  L2FC (x + 1): −7.294
  L2abs (Cpd-DMSO): 7.29
  abs (Cpd-DMSO): 156 iFPM
